Each structure is given as a SMILES string. pIC50: −log10 of the molar value. Where a name gives a salt, the structure may show the parent alone.

The results in this text go back to patent publication US10947213B1 (Merck Patent GmbH, priority 2015, dated 2021).

For this test, the target named is T1, TLR7/NFKb HEK cells (Homo sapiens, UniProt Q9NYK1).
T1 construct: expressed in transfected cells; host or cells: HEK cells (TLR7/NFKb reporter line)
T1 sequence (Q9NYK1 27-1049): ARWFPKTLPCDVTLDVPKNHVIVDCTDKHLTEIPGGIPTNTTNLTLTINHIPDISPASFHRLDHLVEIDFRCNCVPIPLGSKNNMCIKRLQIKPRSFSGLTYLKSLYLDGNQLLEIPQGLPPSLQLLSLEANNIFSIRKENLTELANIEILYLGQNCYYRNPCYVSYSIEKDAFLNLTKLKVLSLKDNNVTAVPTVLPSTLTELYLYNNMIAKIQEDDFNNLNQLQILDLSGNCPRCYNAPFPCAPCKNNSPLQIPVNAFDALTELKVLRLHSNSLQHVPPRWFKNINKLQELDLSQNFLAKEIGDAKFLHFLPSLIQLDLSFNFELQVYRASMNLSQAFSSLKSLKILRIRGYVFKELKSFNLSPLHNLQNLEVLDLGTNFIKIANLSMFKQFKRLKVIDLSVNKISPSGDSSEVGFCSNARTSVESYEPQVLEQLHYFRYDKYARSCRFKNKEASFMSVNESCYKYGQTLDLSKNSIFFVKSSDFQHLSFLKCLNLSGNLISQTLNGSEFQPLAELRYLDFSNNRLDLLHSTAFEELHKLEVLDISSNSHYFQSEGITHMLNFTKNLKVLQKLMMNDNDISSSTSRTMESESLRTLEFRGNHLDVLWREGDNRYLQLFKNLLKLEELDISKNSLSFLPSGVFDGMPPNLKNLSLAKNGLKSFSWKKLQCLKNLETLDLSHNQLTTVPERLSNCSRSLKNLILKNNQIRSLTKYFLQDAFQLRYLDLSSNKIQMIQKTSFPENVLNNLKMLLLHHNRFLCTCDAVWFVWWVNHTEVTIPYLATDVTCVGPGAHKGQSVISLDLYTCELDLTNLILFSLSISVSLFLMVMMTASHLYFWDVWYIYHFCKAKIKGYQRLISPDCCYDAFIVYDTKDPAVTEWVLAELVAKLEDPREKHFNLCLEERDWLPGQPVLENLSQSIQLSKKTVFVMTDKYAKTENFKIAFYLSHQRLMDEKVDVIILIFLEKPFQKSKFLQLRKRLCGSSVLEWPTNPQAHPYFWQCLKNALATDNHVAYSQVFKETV
Description: HEK Cell Assay (TLR7/NFKb reporter, Steady-Glo luciferase readout). Format: cell-based. The note with it: 30 min compound preincubation, then R*48 agonist for 5 hours, read-out: Potency. The gist of the method:
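Steady-Glo luminescence after 5 h stimulation with R*48 agonist, following 30 min compound preincubation. Assay run in HEK cells carrying a TLR7/NFKb luciferase reporter, plated at 5000 cells/well and grown 24 h at 37° C (10% CO2) before treatment.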
Consider `CCN(C)[C@@H](C)C(=O)N[C@@H]1C[C@H](C)CN(c2ccc(C#N)c3nccnc23)C1` [Compound 99, (2S)—N-[(3R,5S)-1-(8-cyanoquinoxalin-5-yl)-5-methylpiperidin-3-yl]-2-[ethyl(methyl)amino]propanamide], for which the pIC50 was above 6.00.

On to `C[C@@H]1CN(c2ccnc3nccnc23)C[C@H](CN2CCN(C)[C@@H](C)C2)O1` [Compound 53, (2S,6R)-2-(((S)-3,4-dimethylpiperazin-1-yl)methyl)-6-methyl-4-(pyrido[2,3-b]pyrazin-8-yl)morpholine], for which the pIC50 is above 6.00.

As to `C[C@H]1C[C@@H](NC(=O)C2CC(F)(F)C2)CN(c2ccc(C(F)(F)F)c3ncccc23)C1` [Compound 247, 3,3-difluoro-N-[(3R,5S)-5-methyl-1-[8-(trifluoromethyl)quinolin-5-yl]piperidin-3-yl]cyclobutane-1-carboxamide], the pIC50 is above 6.00.

In the case of `C[C@H]1C[C@@H](NC(=O)CN2CC(N)C2)CN(c2ccc(C(F)(F)F)c3nccnc23)C1` [Compound 361, 2-(3-aminoazetidin-1-yl)-N-((3R,5S)-5-methyl-1-(8-(trifluoromethyl)quinoxalin-5-yl)piperidin-3-yl)acetamide], the pIC50 is above 6.00.

Take `C[C@H]1C[C@@H](NC(=O)CN2CCOCC2)CN(c2ccc(F)c3ncccc23)C1` [Compound 470, N-[(3R,5S)-1-(8-Fluoro-quinolin-5-yl)-5-methyl-piperidin-3-yl]-2-morpholin-4-yl-acetamide]: the pIC50 is 5.00 to 6.00.

Regarding `N#Cc1ccc(N2CCC(C(=O)NCCN3CCC3)CC2)c2cccnc12` [Compound 439, 1-(8-Cyano-quinolin-5-yl)-piperidine-4-carboxylic Acid (2-azetidin-1-yl-ethyl)-amide], the pIC50 was above 6.00.

Regarding `N[C@@H]1C[C@H](C(F)(F)F)CN(c2ccnc3nccnc23)C1` (racemic) [Compound 84], the pIC50 is 5.00 to 6.00.

Consider `C[C@H]1C[C@@H](NC(=O)CC2CC2(F)F)CN(c2ccc(C(F)(F)F)c3nccnc23)C1` (stereo partly drawn) [Compound 298, 2-(2,2-difluorocyclopropyl)-N-[(3R,5S)-5-methyl-1-[8-(trifluoromethyl)quinoxalin-5-yl]piperidin-3-yl]acetamide], for which the pIC50 was above 6.00.

In the case of `C[C@H]1C[C@@H](NC(=O)CC2(C)CCN(C)CC2)CN(c2ccc(C#N)c3nccnc23)C1` [Compound 233, N-[(3R,5S)-1-(8-cyanoquinoxalin-5-yl)-5-methylpiperidin-3-yl]-2-(1,4-dimethylpiperidin-4-yl)acetamide], the pIC50 was above 6.00.

Consider `C[C@H]1C[C@@H](NC(=O)CC(O)C(C)(C)C)CN(c2ccnc3nccnc23)C1` (single isomer, unassigned) [Compound 149], for which the pIC50 is below 5.00.

With `C[C@H]1C[C@@H](NC(=O)CC(C)(C)CN)CN(c2ccc(C(F)(F)F)c3ncccc23)C1` [Compound 291, 4-amino-3,3-dimethyl-N-[(3R,5S)-5-methyl-1-[8-(trifluoromethyl)quinolin-5-yl]piperidin-3-yl]butanamide], the pIC50 is above 6.00.

`CC(C(=O)N[C@@H]1C[C@H](C)CN(c2ccc(C(F)(F)F)c3nccnc23)C1)N1CC(O)C1` (stereo partly shown) [Compound 297]: the pIC50 was above 6.00.

Regarding `C[C@H]1C[C@@H](NCC(=O)O)CN(c2ccc(C(F)(F)F)c3ncccc23)C1` [Compound 571, [(3R,5S)-5-Methyl-1-(8-trifluoromethyl-quinolin-5-yl)-piperidin-3-ylamino]-acetic acid], the pIC50 was 5.00 to 6.00.

On to `C[C@@H]1CN(c2ccnc3nccnc23)C[C@H](CN2CCC(N3CCOCC3)CC2)O1` [Compound 60, (2R,6S)-2-methyl-6-((4-morpholinopiperidin-1-yl)methyl)-4-(pyrido[2,3-b]pyrazin-8-yl)morpholine], for which the pIC50 is 5.00 to 6.00.

Take `C[C@H]1C[C@@H](NC2CCN(C)C2=O)CN(c2ccc(Cl)c3ncccc23)C1` (single isomer, unassigned) [Compound 261]: the pIC50 was above 6.00.

`CN1CCC(CNC(=O)C2CN(c3ccc(C#N)c4ncccc34)CC(F)(F)C2)CC1` (stereo not shown) [Compound 531, 1-(8-Cyano-quinolin-5-yl)-5,5-difluoro-piperidine-3-carboxylic Acid (1-methyl-piperidin-4-ylmethyl)-amide]: the pIC50 is above 6.00.

Regarding `C[C@H]1C[C@@H](NC(=O)[C@@H](N)CO)CN(c2ccc(C(F)(F)F)c3ncccc23)C1` [Compound 476], the pIC50 was above 6.00.

In the case of `Cc1ncc(N2C[C@@H](C)C[C@@H](NC(=O)CCC(N)=O)C2)c2cccnc12` [Compound 564, N-[(3R,5S)-5-Methyl-1-(8-methyl-[1,7]naphthyridin-5-yl)-piperidin-3-yl]-succinamide], the pIC50 was below 5.00.

Take `CC(C)(C)CC(=O)N[C@H]1C[C@@H](C2CC2)CN(c2ccc(C#N)c3nccnc23)C1` (relative stereo) [Compound 175, cis-N-[1-(8-cyanoquinoxalin-5-yl)-5-cyclopropylpiperidin-3-yl]-3,3-dimethylbutanamide]: the pIC50 was 5.00 to 6.00.

For `C[C@H]1C[C@@H](NC(=O)C(O)C2CC2)CN(c2ccc(C(F)(F)F)c3ncccc23)C1` (stereo partly drawn) [Compound 515, 2-Cyclopropyl-2-hydroxy-N-[(3R,5S)-5-methyl-1-(8-trifluoromethyl-quinolin-5-yl)-piperidin-3-yl]-acetamide], the pIC50 was above 6.00.

`C[C@H]1C[C@@H](NC(=O)CC(C)(C)C)CN(c2ccnc3nccnc23)C1` [Compound 41, 3,3-dimethyl-N-((3R,5S)-5-methyl-1-(pyrido[2,3-b]pyrazin-8-yl)piperidin-3-yl)butanamide]: the pIC50 was 5.00 to 6.00.

As for `C[C@H]1C[C@@H](NC(=O)CO)CN(c2ccc(C#N)c3nccnc23)C1` [Compound 97, N-[(3R,5S)-1-(8-cyanoquinoxalin-5-yl)-5-methylpiperidin-3-yl]-2-hydroxyacetamide], the pIC50 was above 6.00.

For `CN1CCC(CC(=O)NC2CN(c3ccc(C#N)c4nccnc34)CC(F)(F)C2)CC1` (single isomer, unassigned) [Compound 522], the pIC50 is above 6.00.

For `C[C@H]1C[C@@H](N)CN(c2ncc(F)c3nccnc23)C1` [Compound 459, (3R,5S)-1-(8-Fluoro-pyrido[3,4-b]pyrazin-5-yl)-5-methyl-piperidin-3-ylamine hydrochloride], the pIC50 is 5.00 to 6.00.

For the molecule `C[C@@H]1CN(c2ccc(C#N)c3nccnc23)C[C@H](CN2CCC(N3CCOCC3)CC2)O1` [Compound 467, 8-[(2R,6S)-2-methyl-6-{[4-(morpholin-4-yl)piperidin-1-yl]methyl}morpholin-4-yl]quinoxaline-5-carbonitrile], the pIC50 was above 6.00.

Turning to `CC1(C)C[C@@H](N)CN(c2ccnc3nccnc23)C1` [Compound 80, (R)-5,5-dimethyl-1-(pyrido[2,3-b]pyrazin-8-yl)piperidin-3-amine], the pIC50 is 5.00 to 6.00.

In the case of `C[C@H]1C[C@@H](NC(=O)C(N)C2CC2)CN(c2ccc(C#N)c3nccnc23)C1` (stereo partly drawn) [Compound 268, 2-amino-N-[(3R,5S)-1-(8-cyanoquinoxalin-5-yl)-5-methylpiperidin-3-yl]-2-cyclopropylacetamide], the pIC50 was above 6.00.

Turning to `C[C@H]1C[C@@H](NC(=O)CC2CCCN(C)C2)CN(c2ccc(C(F)(F)F)c3nccnc23)C1` (stereo partly drawn) [Compound 293, N-[(3R,5S)-5-methyl-1-[8-(trifluoromethyl)quinoxalin-5-yl]piperidin-3-yl]-2-(1-methylpiperidin-3-yl)acetamide], the pIC50 is above 6.00.

As for `O=C(N[C@@H]1CNC[C@@H]1F)C1CCN(c2ccc(C(F)(F)F)c3ncccc23)CC1` [Compound 464, 1-(8-Trifluoromethyl-quinolin-5-yl)-piperidine-4-carboxylic acid ((3R,4S)-4-fluoro-pyrrolidin-3-yl)-amide hydrochloride], the pIC50 is above 6.00.

With `CCN(CC)CC(=O)NCC1CCN(c2ccc(C#N)c3ncncc23)CC1` [Compound 395, N-[1-(8-Cyano-quinazolin-5-yl)-piperidin-4-ylmethyl]-2-diethylamino-acetamide], the pIC50 was 5.00 to 6.00.

As for `CCN(C)[C@H](C)C(=O)N[C@@H]1C[C@H](C)CN(c2ccnc3nccnc23)C1` [Compound 100, (2R)-2-[ethyl(methyl)amino]-N-[(3R,5S)-5-methyl-1-[pyrido[2,3-b]pyrazin-8-yl]piperidin-3-yl]propanamide], the pIC50 was 5.00 to 6.00.
